Measured values from patent US20260273110A1, “Radiolabeled Fibroblast Activation Protein Inhibitors and Methods of Making Same” (REGENTS OF THE UNIVERSITY OF MICHIGAN, priority 2023, published 2026).
Read-outs that look alike come from different tables or passages of the source. One block for each compound: values may come before it.

Experiments:
[1] = Ib-3 uptake and dosimetry studies in rats; human estimated dosimetry (OLINDA/EXM 2.0); assay type: in vivo, Sprague-Dawley rats; conditions: estimates of human dosimetry from rat distribution data
Description: Uptake and dosimetry studies of (S)—N-(2-(2-cyanopyrrolidin-1-yl)-2-oxoethyl)-6-fluroquinoline-4-carboxamide (Ib-3) were performed in Sprague-Dawley rats (n=4, 2 males, 2 females) at 10, 20, 60, and 120 min. Rats were anesthetized with isoflurane, and (S)—N-(2-(2-cyanopyrrolidin-1-yl)-2-oxoethyl)-6-fluroquinoline-4-carboxamide (Ib-3) was administered via tail vein injections. At the appropriate time points, animals were euthanized, and their tissues procured for measuring radioactivity. Radioactivity was measured in a well counter and expressed as decay-corrected percentage injected dose per gram of tissue. Radiation dosimetry was calculated from the distribution data and was used to determine estimates of human dosimetry with OLINDA/EXM 2.0 software, or equivalent.
Human estimated dosimetry is given in Table 1, below, in mSv/MBq injected for each organ for males, females, and gender averaged: […]

[2] = molecular target: T1, FAP (Homo sapiens, UniProt Q12884); conditions: cited from earlier work; for tumor to kidney ratio: [^177Lu] agent
T1 sequence (Q12884 1-760): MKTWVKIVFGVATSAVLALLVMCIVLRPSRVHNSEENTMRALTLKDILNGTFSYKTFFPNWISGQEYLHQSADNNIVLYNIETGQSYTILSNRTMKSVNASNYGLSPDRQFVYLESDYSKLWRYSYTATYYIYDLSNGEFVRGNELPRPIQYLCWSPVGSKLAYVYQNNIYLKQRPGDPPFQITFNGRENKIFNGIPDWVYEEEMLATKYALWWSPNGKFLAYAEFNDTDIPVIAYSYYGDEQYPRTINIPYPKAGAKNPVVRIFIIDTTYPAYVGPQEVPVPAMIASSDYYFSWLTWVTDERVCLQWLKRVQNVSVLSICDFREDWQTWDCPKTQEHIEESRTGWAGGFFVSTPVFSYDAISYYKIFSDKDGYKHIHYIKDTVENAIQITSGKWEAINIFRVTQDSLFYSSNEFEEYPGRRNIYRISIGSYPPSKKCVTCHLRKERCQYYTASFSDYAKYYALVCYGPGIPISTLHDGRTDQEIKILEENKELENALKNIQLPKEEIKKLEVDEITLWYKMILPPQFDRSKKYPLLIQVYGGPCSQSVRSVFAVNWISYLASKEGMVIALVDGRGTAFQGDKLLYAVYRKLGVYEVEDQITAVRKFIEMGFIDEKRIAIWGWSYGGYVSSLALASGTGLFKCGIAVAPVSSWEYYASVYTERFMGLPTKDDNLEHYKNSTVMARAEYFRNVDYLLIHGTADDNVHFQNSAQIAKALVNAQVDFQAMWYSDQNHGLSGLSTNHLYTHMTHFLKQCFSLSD

Human estimated dosimetry: Adrenals ([1]; Females): 1.02E−02 mSv/MBq
Human estimated dosimetry: Brain ([1]; Females): 3.83E−03 mSv/MBq
Human estimated dosimetry: Breasts ([1]; Females): 1.23E−02 mSv/MBq
Human estimated dosimetry: Effective Dose ([1]; Females): 1.39E−02 mSv/MBq
Human estimated dosimetry: Esophagus ([1]; Females): 1.29E−02 mSv/MBq
Human estimated dosimetry: Eyes ([1]; Females): 6.79E−03 mSv/MBq
Human estimated dosimetry: Gallbladder Wall ([1]; Females): 1.64E−02 mSv/MBq
Human estimated dosimetry: Heart Wall ([1]; Females): 1.46E−02 mSv/MBq
Human estimated dosimetry: Kidneys ([1]; Females): 1.48E−02 mSv/MBq
Human estimated dosimetry: Left colon ([1]; Females): 2.18E−02 mSv/MBq
Human estimated dosimetry: Liver ([1]; Females): 9.11E−03 mSv/MBq
Human estimated dosimetry: Lungs ([1]; Females): 9.36E−03 mSv/MBq
Human estimated dosimetry: Osteogenic Cells ([1]; Females): 1.90E−02 mSv/MBq
Human estimated dosimetry: Ovaries ([1]; Females): 1.40E−02 mSv/MBq
Human estimated dosimetry: Pancreas ([1]; Females): 1.19E−02 mSv/MBq
Human estimated dosimetry: Rectum ([1]; Females): 1.94E−02 mSv/MBq
Human estimated dosimetry: Red Marrow ([1]; Females): 1.58E−02 mSv/MBq
Human estimated dosimetry: Right colon ([1]; Females): 1.99E−02 mSv/MBq
Human estimated dosimetry: Salivary Glands ([1]; Females): 1.34E−02 mSv/MBq
Human estimated dosimetry: Small Intestine ([1]; Females): 2.75E−02 mSv/MBq
Human estimated dosimetry: Spleen ([1]; Females): 1.00E−02 mSv/MBq
Human estimated dosimetry: Stomach Wall ([1]; Females): 1.69E−02 mSv/MBq
Human estimated dosimetry: Thymus ([1]; Females): 1.50E−02 mSv/MBq
Human estimated dosimetry: Thyroid ([1]; Females): 1.38E−02 mSv/MBq
Human estimated dosimetry: Total Body ([1]; Females): 1.49E−02 mSv/MBq
Human estimated dosimetry: Urinary Bladder Wall ([1]; Females): 3.42E−02 mSv/MBq
Human estimated dosimetry: Uterus ([1]; Females): 1.49E−02 mSv/MBq
Human estimated dosimetry: Adrenals ([1]; Gender Averaged): 9.65E−03 mSv/MBq
Human estimated dosimetry: Brain ([1]; Gender Averaged): 3.31E−03 mSv/MBq
Human estimated dosimetry: Breasts ([1]; Gender Averaged): 1.23E−02 mSv/MBq
Human estimated dosimetry: Effective Dose ([1]; Gender Averaged): 1.25E−02 mSv/MBq
Human estimated dosimetry: Esophagus ([1]; Gender Averaged): 1.21E−02 mSv/MBq
Human estimated dosimetry: Eyes ([1]; Gender Averaged): 6.09E−03 mSv/MBq
Human estimated dosimetry: Gallbladder Wall ([1]; Gender Averaged): 1.49E−02 mSv/MBq
Human estimated dosimetry: Heart Wall ([1]; Gender Averaged): 1.26E−02 mSv/MBq
Human estimated dosimetry: Kidneys ([1]; Gender Averaged): 1.52E−02 mSv/MBq
Human estimated dosimetry: Left colon ([1]; Gender Averaged): 1.99E−02 mSv/MBq
Human estimated dosimetry: Liver ([1]; Gender Averaged): 8.47E−03 mSv/MBq
Human estimated dosimetry: Lungs ([1]; Gender Averaged): 8.27E−03 mSv/MBq
Human estimated dosimetry: Osteogenic Cells ([1]; Gender Averaged): 1.84E−02 mSv/MBq
Human estimated dosimetry: Ovaries ([1]; Gender Averaged): 1.40E−02 mSv/MBq
Human estimated dosimetry: Pancreas ([1]; Gender Averaged): 1.10E−02 mSv/MBq
Human estimated dosimetry: Prostate ([1]; Gender Averaged): 1.66E−02 mSv/MBq
Human estimated dosimetry: Rectum ([1]; Gender Averaged): 1.78E−02 mSv/MBq
Human estimated dosimetry: Red Marrow ([1]; Gender Averaged): 1.43E−02 mSv/MBq
Human estimated dosimetry: Right colon ([1]; Gender Averaged): 1.82E−02 mSv/MBq
Human estimated dosimetry: Salivary Glands ([1]; Gender Averaged): 1.26E−02 mSv/MBq
Human estimated dosimetry: Small Intestine ([1]; Gender Averaged): 2.59E−02 mSv/MBq
Human estimated dosimetry: Spleen ([1]; Gender Averaged): 9.10E−03 mSv/MBq
Human estimated dosimetry: Stomach Wall ([1]; Gender Averaged): 1.55E−02 mSv/MBq
Human estimated dosimetry: Testes ([1]; Gender Averaged): 7.86E−03 mSv/MBq
Human estimated dosimetry: Thymus ([1]; Gender Averaged): 1.34E−02 mSv/MBq
Human estimated dosimetry: Thyroid ([1]; Gender Averaged): 1.29E−02 mSv/MBq
Human estimated dosimetry: Total Body ([1]; Gender Averaged): 1.37E−02 mSv/MBq
Human estimated dosimetry: Urinary Bladder Wall ([1]; Gender Averaged): 4.15E−02 mSv/MBq
Human estimated dosimetry: Uterus ([1]; Gender Averaged): 1.49E−02 mSv/MBq
Human estimated dosimetry: Adrenals ([1]; Males): 9.10E−03 mSv/MBq
Human estimated dosimetry: Brain ([1]; Males): 2.79E−03 mSv/MBq
Human estimated dosimetry: Effective Dose ([1]; Males): 1.10E−02 mSv/MBq
Human estimated dosimetry: Esophagus ([1]; Males): 1.13E−02 mSv/MBq
Human estimated dosimetry: Eyes ([1]; Males): 5.39E−03 mSv/MBq
Human estimated dosimetry: Gallbladder Wall ([1]; Males): 1.33E−02 mSv/MBq
Human estimated dosimetry: Heart Wall ([1]; Males): 1.06E−02 mSv/MBq
Human estimated dosimetry: Kidneys ([1]; Males): 1.56E−02 mSv/MBq
Human estimated dosimetry: Left colon ([1]; Males): 1.80E−02 mSv/MBq
Human estimated dosimetry: Liver ([1]; Males): 7.83E−03 mSv/MBq
Human estimated dosimetry: Lungs ([1]; Males): 7.17E−03 mSv/MBq
Human estimated dosimetry: Osteogenic Cells ([1]; Males): 1.78E−02 mSv/MBq
Human estimated dosimetry: Pancreas ([1]; Males): 1.00E−02 mSv/MBq
Human estimated dosimetry: Prostate ([1]; Males): 1.66E−02 mSv/MBq
Human estimated dosimetry: Rectum ([1]; Males): 1.62E−02 mSv/MBq
Human estimated dosimetry: Red Marrow ([1]; Males): 1.27E−02 mSv/MBq
Human estimated dosimetry: Right colon ([1]; Males): 1.65E−02 mSv/MBq
Human estimated dosimetry: Salivary Glands ([1]; Males): 1.17E−02 mSv/MBq
Human estimated dosimetry: Small Intestine ([1]; Males): 2.42E−02 mSv/MBq
Human estimated dosimetry: Spleen ([1]; Males): 8.20E−03 mSv/MBq
Human estimated dosimetry: Stomach Wall ([1]; Males): 1.40E−02 mSv/MBq
Human estimated dosimetry: Testes ([1]; Males): 7.86E−03 mSv/MBq
Human estimated dosimetry: Thymus ([1]; Males): 1.18E−02 mSv/MBq
Human estimated dosimetry: Thyroid ([1]; Males): 1.20E−02 mSv/MBq
Human estimated dosimetry: Total Body ([1]; Males): 1.25E−02 mSv/MBq
Human estimated dosimetry: Urinary Bladder Wall ([1]; Males): 4.87E−02 mSv/MBq
Structure (SMILES): N#C[C@@H]1CCCN1C(=O)CNC(=O)c1ccnc2ccc([18F])cc12 [Ib-3, (S)—N-(2-(2-cyanopyrrolidin-1-yl)-2-oxoethyl)-6-[18F]fluoroquinoline-4-carboxamide]

Structure (SMILES): CN(CCCN1CCN(C(=O)CN2CCN(CC(=O)O)CCN(CC(=O)O)CCN(CC(=O)O)CC2)CC1)c1ccc2nccc(C(=O)NCC(=O)N3CC(F)(F)C[C@H]3C#N)c2c1 [FAPI-46]
tumor to background ratio relative to FAP-2286 ([2]; [^68Ga] agent, early time points): 3-5 times
tumor to kidney ratio ([2]; 3 h): 21.0
tumor to kidney ratio ([2]; 24 hours): 12.7
tumor to kidney ratio ([2]; 72 h): 8
